Experimental data from patent publication US6617313B1, “Glucopyranoside and process of isolation thereof from pterocarpus marsupium pharmaceutical composition containing the same and use thereof” (Council of Scientific and Industrial Research, priority 2002, dated 2003).

Tests used:
[1] = test system: pancreatic beta cells; conditions: effect due to regeneration of pancreatic beta cells; claim questioned by Kolb et al and Sheehan et al; cited from earlier work
[2] = hypoglycaemic / anti-diabetic activity of the isolated compound (no test described); conditions: stated without test details

melting point [°C]	Compound	hypoglycemic principle [1]	hypoglycaemic activity [2]	anti-diabetic activity ([2]; listed as 2,6-dihydroxy-2-(P-hydroxybenzyl)-3(2H)benzofuran-7-C-β-D-glucopyranoside)	anti-diabetic activity ([2]; listed as 2,6-dihydroxy-2-(p-hydroxybenzyl)-3(2H)benzofuran-7-C-β-D-glucopyranoside)
–	Oc1cc(O)c2c(c1)O[C@H](c1ccc(O)c(O)c1)[C@H](O)C2 [(−)-epicatechin]	active hypoglycemic principle	–	–	–
157 to 158	O=C1c2ccc(O)c(C3OC(CO)C(O)C(O)C3O)c2OC1(O)Cc1ccc(O)cc1 [formula 1, 2,6-dihydroxy-2-(P-hydroxybenzyl)-3(2H)benzofuran-7-C-β-D-glucopyranoside]	–	shows hypoglycaemic activity	possesses anti-diabetic activity	antidiabetic activity
